In EP0153678A1, “Cinnamic acid derivatives, processes for the preparation thereof and pharmaceutical compositions” (Tanabe Seiyaku Co., Ltd., priority 1984, dated 1985):
Where a name gives a salt, the structure may show the parent alone.

How the values were obtained:
[1] = system: pulmonary embolism induced by arachidonic acid; experiment: Prophylactic effect against pulmonary embolism induced by arachidonic acid in mice (method of Kohler et al.); format: in vivo; settings: for Evalu-tion (shortening rate of the recovery time): ddY male mice, test compound 30 mg/kg orally in 0.25 % CMC, after one hour arachidonic acid 70 mg/kg intravenously; for prophylactic effect against arachidonic acid-induced pulmonary embolism, relative to 3-[4-(3-pyridylmethyl)phenyl]-2-methylacrylic acid hydrochloride: Kohler et al.'s method, times as strong as the known compound
Experimental: After one hour, arachidonic acid (70 mg/10 ml saline solution/kg) was intravenously administered. […] The time from having had difficulty in breathing and laying till starting to move was counted as a recovery time. When the test animal was died, the longest recovery time during the test was counted. The shortening rate of the recovery time was calculated by the following formula for showing the effect of the test compounds.

[2] = Toxicity compared with the known compound (method not described); settings: fraction of the toxicity of the sodium salt of the known compound

SMILES | Evalu-tion (shortening rate of the recovery time) [1] | prophylactic effect against arachidonic acid-induced pulmonary embolism, relative to 3-[4-(3-pyridylmethyl)phenyl]-2-methylacrylic acid hydrochloride [1] | toxicity relative to sodium 3-[4-(3-pyridylmethyl)phenyl]-2-methyl--acrylate [2]
COC(c1ccc(C=C(C)C(=O)O)cc1)c1cccnc1 (stereo not drawn) [sodium α-methyl-4-(α-methoxy-3-pyridylmethyl)cinnamate] | + (evaluated as (+) when it was more than 50 %) | – | –
CCOC(c1ccc(C=C(C)C(=O)[O-])cc1)c1cccnc1.[Na+] (stereo not drawn) [sodium α-methyl-4-(α-ethoxy-3-pyridylmethyl)cinnamate] | + (evaluated as (+) when it was more than 50 %) | more than 2 times | about half
CC(=Cc1ccc(C(=O)c2cccnc2)cc1)C(=O)O [hydrochloride] | + (evaluated as (+) when it was more than 50 %) | – | –
CCCOC(c1ccc(C=C(C)C(=O)[O-])cc1)c1cccnc1.[Na+] (stereo not drawn) [sodium α-methyl-4-(α-n-propoxy-3-pyridylmethyl)cinnamate] | + (evaluated as (+) when it was more than 50 %) | – | –
CC(=Cc1ccc(C(O)c2cccnc2)cc1)C(=O)O (stereo not drawn) [α-methyl-4-(α-hydroxy-3-pyridylmethyl)cinnamic acid hydrochloride] | + (evaluated as (+) when it was more than 50 %) | – | –
CC(=Cc1ccc(Cc2cccnc2)cc1)C(=O)O.Cl [3-[4-(3-pyridylmethyl)phenyl]-2-methylacrylic acid hydrochloride, reference compound] | ± (evaluated as (±) when it was from 20 % to less than 50 %) | – | –
CC(=Cc1ccc(C(O)c2cccnc2)cc1)C(=O)O (stereo not drawn) [α-methyl-4-(α-hydroxy-3-pyridylmethyl)cinnamic acid] | – | more than 2 times | –
